Test results taken from the supplement of paper PMC10307832.

Tests used:
Test in all cases: relative viability (nuclei count vs DMSO), 5 days (fraction); higher = more cells survive
BGJ398 + Dasatinib = compound: CCN1CCN(c2ccc(Nc3cc(N(C)C(=O)Nc4c(Cl)c(OC)cc(OC)c4Cl)ncn3)cc2)CC1 [BGJ398] + Cc1nc(Nc2ncc(C(=O)Nc3c(C)cccc3Cl)s2)cc(N2CCN(CCO)CC2)n1 [Dasatinib] (partner 0.075 µM)
In short: (§1)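 Values are medians from duplicate plates. Each reflects relative viability, defined as the nuclei count of treated wells over that of vehicle wells. Lung cancer cell lines in 1536-well plates were pin-tool dosed one day after seeding with one drug alone or with a fixed anchor-drug dose plus five library-drug doses (not always all listed) in √10 steps, then fixed, stained and imaged at 4× after 5 days.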

[1] = compound: C1=CC2=NC=CN=C2C=C1/C=C/3\C(=O)NC(=O)S3 + CS(=O)(=O)N1CCN(Cc2cc3nc(-c4cccc5[nH]ncc45)nc(N4CCOCC4)c3s2)CC1 [Pictilisib] (partner 1 µM)
In short: as §1

[2] = compound: C1=CC2=NC=CN=C2C=C1/C=C/3\C(=O)NC(=O)S3 + O=C(c1cc(Cc2n[nH]c(=O)c3ccccc23)ccc1F)N1CCN(C(=O)C2CC2)CC1 [Olaparib] (partner 8 µM)
In short: as §1

[3] = compound: C1=CC2=NC=CN=C2C=C1/C=C/3\C(=O)NC(=O)S3 + CC(C)C[C@H](NC(=O)[C@H](Cc1ccccc1)NC(=O)c1cnccn1)B(O)O [Bortezomib] (partner 0.002 µM)
In short: as §1

Cell Line	relative viability (BGJ398 + Dasatinib; first compound 0.01 µM)	relative viability (BGJ398 + Dasatinib; first compound 0.03162 µM)	relative viability (BGJ398 + Dasatinib; first compound 0.1 µM)	relative viability (BGJ398 + Dasatinib; first compound 0.3162 µM)	relative viability (BGJ398 + Dasatinib; first compound 1 µM)	relative viability ([1]; first compound 0.02 µM)	relative viability ([1]; first compound 0.06325 µM)	relative viability ([1]; first compound 0.2 µM)	relative viability ([1]; first compound 0.6325 µM)	relative viability ([1]; first compound 2 µM)	relative viability ([2]; first compound 0.02 µM)	relative viability ([2]; first compound 0.06325 µM)	relative viability ([2]; first compound 0.2 µM)	relative viability ([2]; first compound 0.6325 µM)	relative viability ([2]; first compound 2 µM)	relative viability ([3]; first compound 0.02 µM)	relative viability ([3]; first compound 0.06325 µM)	relative viability ([3]; first compound 0.2 µM)	relative viability ([3]; first compound 0.6325 µM)	relative viability ([3]; first compound 2 µM)
NCI-H2009	0.275	0.311	0.295	0.329	0.297	0.859	0.891	0.964	0.712	0.744	0.685	0.715	0.685	0.739	0.703	0.954	1.07	1.11	0.969	0.801
NCI-H2023	0.517	0.537	0.582	0.489	0.438	0.236	0.27	0.26	0.223	0.16	0.428	0.461	0.508	0.492	0.498	0.924	0.923	1.03	0.875	0.645
NCI-H2085	0.272	0.236	0.215	0.279	0.229	0.417	0.394	0.533	0.455	0.486	0.813	0.73	0.798	0.821	0.754	1.03	1.07	1.02	0.824	1.01
NCI-H2087	0.824	0.898	0.808	0.801	0.871	0.77	1.11	0.913	0.798	0.995	0.484	0.646	0.57	0.631	0.447	0.831	0.942	0.68	0.809	0.805
NCI-H2126	0.696	0.646	0.565	0.687	0.563	0.448	0.56	0.498	0.474	0.411	0.932	0.946	0.841	0.904	0.799	1.08	1.16	1.11	1.08	0.716
NCI-H2228	0.471	0.498	0.516	0.567	0.423	0.384	0.36	0.441	0.274	0.22	0.666	0.599	0.616	0.654	0.649	0.948	0.881	1.23	1.06	0.82
NCI-H2347	0.314	0.291	0.342	0.278	0.262	0.706	0.609	0.748	0.527	0.757	0.528	0.583	0.553	0.635	0.543	0.769	1.17	1.05	0.932	0.926
NCI-H2405	0.213	0.236	0.233	0.225	0.192	0.488	0.504	0.428	0.433	0.182	0.791	0.999	0.851	0.848	0.712	0.96	1.06	0.991	1	0.782
NCI-H3122	0.761	0.833	0.923	0.785	0.991	0.697	0.487	0.578	0.547	0.364	0.552	0.679	0.568	0.556	0.619	1.02	1.01	1	1.08	0.975
PC-3 [JPC-3]	0.949	–	1.02	0.854	1.01	0.687	0.881	0.594	0.65	0.8	1.07	1.18	1.11	1.18	1.13	0.735	0.853	0.879	0.851	0.852
PC-14	0.294	0.0382	0.234	0.141	0.317	0.636	0.75	0.735	0.652	0.531	0.25	0.363	0.263	0.227	0.277	0.726	0.816	0.81	0.882	0.81
RERF-LC-KJ	0.655	0.933	0.753	0.858	0.819	0.502	0.457	0.492	0.518	0.482	0.893	0.937	1	0.888	0.939	1.25	1.17	1.23	1.14	1.11
SK-LU-1	0.173	0.19	0.142	0.153	0.13	0.703	0.695	0.583	0.577	0.506	0.477	0.42	0.488	0.521	0.465	1.37	1.32	1.44	1.29	0.783
SW 1573	0.439	0.668	0.466	0.462	0.574	0.525	0.511	0.524	0.555	0.441	0.501	0.65	0.434	0.405	0.387	0.996	1.21	1.17	0.835	0.95
UMC-11	0.463	0.465	0.51	0.454	0.443	0.839	0.914	0.882	0.786	0.952	0.336	0.423	0.391	0.336	0.379	0.869	0.965	0.523	0.591	0.997
